Data: patent US20240351996A1, “CDK19-SELECTIVE INHIBITORS, AND METHODS OF USE THEREOF” (CZ BIOHUB SF, LLC, priority 2022, published 2024)

Key:
CDK19/CycC = CDK19/CycC (Homo sapiens, UniProt Q9BWU1); assay: LanthaScreen europium kinase binding assay (FRET displacement), CDK19; conditions: for CDK19 Selectivity: CDK19/CDK8 selectivity based on IC50 values; for IC50: his-tagged CDK19/CycC 5 nM, tracer 10 nM, 3 h incubation
Protocol: (§1) FRET Displacement Assay to Measure IC50: The CDK19/CDK8 IC50 values were measured to evaluate activity and to determine CDK19/CDK8 selectivity. The IC50 values of the disclosed compounds was measured using a LanthaScreen™ europium kinase binding assay (ThermoFisher), as described herein.
To a kinase buffer cocktail solution (i.e., 5× Kinase Buffer A) was added: purified recombinant his-tagged CDK19/CycC protein (5 nM), ATP-competitive kinase inhibitor scaffold kinase tracer Alexa Fluor® 665 (10 nM), biotin anti-his tag antibody (2 nM), LanthaScreen® europium-streptavidin (2 nM). An aliquot of the cocktail solution (10 μL) was added to each well of a LUMITRAC™ 200:384 flat bottom, non-treated microtiter white plate. The plate was then covered to protect light sensitive reagents and incubated for 30 min at room temperature to equilibrate before addition of any inhibitors.
(§2) A serial dilution of the compounds was titrated into each well using an automated liquid handling Staccato integrated system at the following concentration(s) (Log10 Molar [C]): −4.5, −5.0, −5.5, −6.0, −6.5, −7.0, −7.5, −8.0 so that a complete dose-response could be calculated. A Tecan microplate reader infinite m200 instrument was then used to measure the FRET signal of each individual well using an excitation of 317/20 nm, emission europium of 620/12 nm, and emission kinase tracer of 665/12 nm after a 3 h incubation period at room temperature until steady-state kinetics were achieved.
(§3) Results were performed in duplicate and were repeated a total of 3 independent times before data was normalized to the DMSO control group and IC50 values reported.

CDK8 = CDK8 (Homo sapiens, UniProt P49336); assay: LanthaScreen europium kinase binding assay (FRET displacement), CDK8
Sequence of CDK8 (P49336 whole entry): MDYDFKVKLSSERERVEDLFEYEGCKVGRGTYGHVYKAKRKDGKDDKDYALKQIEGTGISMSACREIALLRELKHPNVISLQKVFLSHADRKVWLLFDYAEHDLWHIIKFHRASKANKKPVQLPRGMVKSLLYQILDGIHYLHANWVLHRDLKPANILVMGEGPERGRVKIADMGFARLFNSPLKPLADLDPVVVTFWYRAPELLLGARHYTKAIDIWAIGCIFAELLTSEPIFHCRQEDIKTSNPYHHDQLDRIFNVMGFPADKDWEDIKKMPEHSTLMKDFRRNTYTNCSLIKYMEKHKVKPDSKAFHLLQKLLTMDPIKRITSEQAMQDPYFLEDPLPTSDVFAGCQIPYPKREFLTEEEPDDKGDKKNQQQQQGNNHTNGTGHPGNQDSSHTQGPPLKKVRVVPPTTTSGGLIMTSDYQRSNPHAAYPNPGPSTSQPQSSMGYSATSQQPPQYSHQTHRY
Sequence of CDK8 (P24863 whole entry partner): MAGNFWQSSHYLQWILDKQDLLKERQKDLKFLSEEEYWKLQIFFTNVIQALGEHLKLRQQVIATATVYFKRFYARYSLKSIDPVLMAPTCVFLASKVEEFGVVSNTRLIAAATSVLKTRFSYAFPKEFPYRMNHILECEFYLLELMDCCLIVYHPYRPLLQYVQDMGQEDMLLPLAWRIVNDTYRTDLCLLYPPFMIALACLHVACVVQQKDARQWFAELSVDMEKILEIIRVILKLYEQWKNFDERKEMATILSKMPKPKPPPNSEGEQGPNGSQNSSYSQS
Protocol: as §1
[…] An aliquot of the cocktail solution (10 μL) was added to each well of a LUMITRAC™ 200:384 flat bottom, non-treated microtiter white plate. The plate was then covered to protect light sensitive reagents and incubated for 30 min at room temperature to equilibrate before addition of any inhibitors.
as §2, §3

Sequence of CDK19/CycC (Q9BWU1 whole entry): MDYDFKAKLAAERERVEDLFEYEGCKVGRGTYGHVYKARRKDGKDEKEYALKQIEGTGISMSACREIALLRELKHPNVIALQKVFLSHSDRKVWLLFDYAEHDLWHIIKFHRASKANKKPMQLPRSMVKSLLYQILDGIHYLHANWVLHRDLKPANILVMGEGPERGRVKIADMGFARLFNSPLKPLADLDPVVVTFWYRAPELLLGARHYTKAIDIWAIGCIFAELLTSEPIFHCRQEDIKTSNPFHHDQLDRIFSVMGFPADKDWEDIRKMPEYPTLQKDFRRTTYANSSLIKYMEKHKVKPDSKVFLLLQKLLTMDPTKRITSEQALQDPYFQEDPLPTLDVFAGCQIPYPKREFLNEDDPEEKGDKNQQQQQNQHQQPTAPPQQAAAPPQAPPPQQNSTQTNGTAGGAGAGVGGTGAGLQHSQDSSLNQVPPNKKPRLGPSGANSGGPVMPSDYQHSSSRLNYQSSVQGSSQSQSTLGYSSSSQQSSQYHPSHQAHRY
Sequence of CDK19/CycC (P24863 whole entry partner): as the sequence (P24863 whole entry partner) above

| SMILES | CDK19 Selectivity (CDK19/CycC) | IC50 (CDK19/CycC) [µM] | IC50 (CDK8) [µM] |
| --- | --- | --- | --- |
| c1cc(Nc2cnc(Nc3ccc(C4CCCCC4)cc3)nc2)c(OC2CCCC2)cn1 [Compound A1] | 1.2 | 0.069 | 0.059 |
| c1cc(Nc2cnc(Nc3ccc(C4COC4)cc3)nc2)c(OC2CCCC2)cn1 [Compound A2] | 1.2 | 0.011 | 0.014 |
| c1cc(Nc2cnc(Nc3ccc(C4CCCC4)cc3)nc2)c(OC2CCCC2)cn1 [Compound A3] | 1.1 | 0.0076 | 0.0082 |
| CC(C)Cc1ccc(Nc2ncc(Nc3ccncc3)cn2)cc1 [Compound A5] | 3 |  |  |
| Cc1nc(Nc2ccc(CC(C)C)cc2)ncc1Nc1ccncc1 [Compound A6] | 5.5 | 0.038 | 0.21 |
| Fc1ccc(Nc2ncc(Nc3ccncc3)cn2)cc1 [Compound A7] |  | 10 | 14 |
| Cc1cc(Nc2cnc(Nc3ccc(CC(C)C)cc3)nc2)ccn1 [Compound A8] | 3.3 |  |  |
| Cc1cc(Nc2cnc(Nc3ccc(CC(C)C)cc3)nc2)cc(C)n1 [Compound A9] | 4 | 2.07 | 8.26 |
| CCCc1ccc(Nc2ncc(Nc3ccnc(C)c3)cn2)cc1 [Compound A10] | 3.1 | 0.099 | 0.31 |
| Cc1cnc2ccccc2c1Nc1cnc(Nc2ccc(CC(C)C)cc2)nc1 [Compound A12] | 0.9 | 0.038 | 0.034 |
| Cc1ccc2nccc(Nc3cnc(Nc4ccc(CC(C)C)cc4)nc3)c2c1 [Compound A13] | 2.4 | 0.024 | 0.056 |
| CCCc1ccc(Nc2ncc(Nc3ccncc3)cn2)cc1 [Compound A14] | 3.3 | 0.029 | 0.096 |
| CCCc1ccc(Nc2ncc(Nc3ccnc4ccccc34)cn2)cc1 [Compound A15] | 1.1 | 0.096 | 0.109 |
| c1cc(Nc2cnc(Nc3ccc(C4CC4)cc3)nc2)ccn1 [Compound A16] | 2.8 | 0.133 | 0.371 |
| Cc1cc(Nc2cnc(Nc3ccc(C4CC4)cc3)nc2)ccn1 [Compound A17] | 2.8 | 0.419 | 1.16 |
| Cc1cc(Nc2cnc(Nc3ccc(C4CC4)cc3)nc2)cc(C)n1 [Compound A18] |  | 10 | 10 |
| FC(F)C(F)(F)Oc1ccc(Nc2ncc(Nc3ccncc3)cn2)cc1 [Compound A19] | 4.2 | 0.0091 | 0.038 |
| CCCc1ccc(Nc2ncc(Nc3cc(C)nc(C)c3)cn2)cc1 [Compound A20] |  | 10 | 10 |
| Cc1cnccc1Nc1cnc(Nc2ccc(CC(C)C)cc2)nc1C [Compound A22] | 1.3 | 0.024 | 0.031 |
| COc1cc(Nc2cnc(Nc3ccc(CC(C)C)cc3)nc2)ccn1 [Compound A23] | 4.5 | 0.1 | 0.451 |
| Cc1cc(Nc2cnc(Nc3cccc(C4CC4)c3)nc2)ccn1 [Compound A24] |  | 9.87 | 10 |
| COc1cnccc1Nc1cnc(Nc2ccc(CC(C)C)cc2)nc1C [Compound A25] | 0.9 | 0.016 | 0.015 |
| c1cc(Nc2ncc(Nc3ccncc3)cn2)cc(C2CC2)c1 [Compound A26] | 1.6 | 5.69 | 9.03 |
| Cc1cc(Nc2cnc(Nc3cccc(C4CC4)c3)nc2)cc(C)n1 [Compound A27] |  | 10 | 10 |
| CC(C)Cc1cccc(Nc2ncc(Nc3ccncc3)cn2)c1 [Compound A28] | 1.7 | 1.64 | 2.73 |
| Cc1cc(Nc2cnc(Nc3cccc(CC(C)C)c3)nc2)ccn1 [Compound A29] | 2 | 0.991 | 2.03 |
| Cc1cc(Nc2cnc(Nc3cccc(CC(C)C)c3)nc2)cc(C)n1 [Compound A30] |  | 10 | 10 |
| CC(C)Cc1cccc(Nc2ncc(Nc3cccnc3)cn2)c1 [Compound A31] |  | 9.03 | 9.93 |

| SMILES | CDK19 Selectivity (CDK19/CycC) | IC50 (CDK19/CycC) [µM] | IC50 (CDK8) [µM] |
| --- | --- | --- | --- |
| Cc1cnccc1Nc1cnc(Nc2cccc(CC(C)C)c2)nc1 [Compound A32] | 3.5 | 0.378 | 1.32 |
| COc1cc(Nc2cnc(Nc3cccc(CC(C)C)c3)nc2)ccn1 [Compound A33] | 3 | 0.965 | 2.87 |
| CC(C)Cc1cccc(Nc2ncc(Nc3ccnc(C(C)C)c3)cn2)c1 [Compound A34] | 5 | 0.903 | 4.51 |
| CC(C)Cc1cccc(Nc2ncc(Nc3ccnc(C(F)(F)F)c3)cn2)c1 [Compound A35] |  | 10 | 10 |
| COc1cc(CC(C)C)ccc1Nc1ncc(Nc2ccncc2)cn1 [Compound A36] | 4.2 | 0.123 | 0.513 |
| c1cc(Nc2cnc(Nc3ccc4c(c3)CCCC4)nc2)ccn1 [Compound A37] | 2 | 0.041 | 0.083 |
| COc1cc(N2CCN(C)CC2)ccc1Nc1ncc(Nc2ccncc2)cn1 [Compound A38] |  | 10 | 10 |
| Cc1cc(CC(C)C)cc(Nc2ncc(Nc3ccncc3)cn2)c1 [Compound A40] |  | 25 |  |
| Cc1cc(Nc2ncc(Nc3ccncc3)cn2)ccc1F [Compound A41] | 1 | 8.94 | 8.94 |
| Cc1cc(Nc2cnc(Nc3ccc(CC4CC4)cc3)nc2)ccn1 [Compound A42] | 2 | 0.449 | 0.833 |
| c1ccc2c(Nc3cnc(Nc4ccc(CC5CC5)cc4)nc3)ccnc2c1 [Compound A43] | 6 | 0.006 | 0.037 |
| FC(F)(F)c1cc(Nc2ncc(Nc3ccncc3)cn2)cc(C(F)(F)F)c1 [Compound A44] | 1 | 4.81 | 6.33 |
| c1cc(Nc2cnc(Nc3ccc(CC4CC4)cc3)nc2)ccn1 [Compound A45] | 2 | 0.138 | 0.214 |
| CC(C)Cc1ccc(Nc2ncc(Nc3ccnc(C(C)C)c3)cn2)cc1 [Compound A46] | 4.6 | 0.088 | 0.407 |
| CC(C)Cc1ccc(Nc2ncc(NC(=O)c3ccncc3)cn2)cc1 [Compound A48, N-(2-((4-isobutylphenyl)amino)pyrimidin-5-yl) isonicotinamide] | 5.3 | 1.55 | 8.22 |
| CC(C)Cc1ccc(Nc2ncc(C(=O)Nc3ccncc3)cn2)cc1 [Compound A49, 2-((4-isobutylphenyl)amino)-N-(pyridin-4-yl)pyrimidine-5-carboxamide] | 3.9 | 2.49 | 9.36 |
| COc1cnccc1Nc1cnc(Nc2ccc(CC(C)C)cc2)nc1 [Compound A50] | ≥6 | ≤ 0.0025 | 0.016 |
| CCc1cnccc1Nc1cnc(Nc2ccc(CC(C)C)cc2)nc1 [Compound A51] | ≥15 | ≤ 0.0025 | 0.038 |
| CC(C)Cc1ccc(Nc2ncc(Nc3cccnc3)cn2)cc1 [Compound A52, N2-(4-isobutylphenyl)-N5-(pyridin-3-yl)pyrimidine-2,5-diamine] | 5 | 0.704 | 3.55 |
| CC(C)Cc1ccc(Nc2ncc(Nc3ccncc3OC3CCCCC3)cn2)cc1 [Compound A54] | 0.8 | 0.045 | 0.035 |
| CC(C)Cc1ccc(Nc2ncc(Nc3ccncc3OC3CCCNC3)cn2)cc1 (stereo not drawn) [Compound A55] | 1.1 | 0.04 | 0.044 |
| CC(C)Cc1ccc(Nc2ncc(Nc3ccncc3F)cn2)cc1 [Compound A56] | ≥11 | ≤ 0.0025 | 0.027 |
| CC(C)Cc1ccc(Nc2ncc(Nc3ccncc3Cl)cn2)cc1 [Compound A57] | 2 | ≤ 0.0025 | 0.003 |
| CC(C)Cc1ccc(Nc2ncc(Nc3ccncc3Cl)cn2)c(F)c1 [Compound A58] | 2 | ≤ 0.0025 | 0.0028 |
| CC(C)Cc1ccc(Nc2ncc(Nc3ccncc3)cn2)cc1 [Compound A140] | 2.5 |  |  |
| Cc1cc(Nc2cnc(Nc3ccc(CC(C)C)cc3)nc2)ccn1 [Compound A144] | 2.5 |  |  |
| O=C(NC1CCCC1)c1cnccc1Nc1cnc(Nc2ccc(C3CCCCC3)cc2)nc1 [Compound A151] |  | 1.11 |  |
